According to ChEMBL document CHEMBL4739717, “Methods of treating cartilage disorders through inhibition of clk and dyrk” (2020):

Experiments:
[1] = Induction of chondrogenesis in human MSC assessed as maximum activity at 30 nM incubated for 6 days by rhodamine B and Nile red staining based imaging analysis relative to control; format: functional; settings: BMMSC, 144 h, time 6 day
[2] = Effect on Wnt signaling pathway in human SW480 cells harbouring TCF/LEF luciferase reporter gene and SP5-Luc reporter gene incubated for 36 to 48 hrs by luminescence assay; format: cell-based
[3] = molecular target: Dual specificity tyrosine-phosphorylation-regulated kinase 1A (Homo sapiens, UniProt Q13627); assay: Inhibition of recombinant DYRK1A (unknown origin) using Ser/Thr 18 peptide as substrate incubated for 1 hr in presence of ATP by FRET assay
[4] = Induction of chondrogenesis in human MSC assessed as maximum activity at 10 nM incubated for 6 days by rhodamine B and Nile red staining based imaging analysis relative to control; format: functional; settings: BMMSC, 144 h, time 6 day
[5] = Inhibition of IL1-beta induced MMP3 expression levels in human chondrocytes assessed as MMP3 levels incubated for 2hrs followed by IL1-beta stimulation and measured after overnight incubation by LANCE assay; format: functional, cell-based; settings: Chondrocyte
[6] = Induction of chondrogenesis in human MSC assessed as incubated for 6 days by rhodamine B and Nile red staining based imaging analysis; format: functional; settings: bmmsc

| Structure (SMILES) | EC50 [2] [nM] | EC50 [3] [nM] | EC50 [5] [nM] | EC50 [6] [nM] | Emax at 0.03 µM [1] [%] | Emax at 0.01 µM [4] [%] |
| --- | --- | --- | --- | --- | --- | --- |
| CCC(=O)Nc1cncc(-c2cnc3[nH]nc(-c4nc5c(-c6cccs6)cncc5[nH]4)c3c2)c1 | 4 | 23 |  |  | 69.8 |  |
| CC(C)(C)C(=O)Nc1cncc(-c2cc3c(-c4cc5c(-c6ccncc6)cncc5[nH]4)n[nH]c3cn2)c1 | > 10000 | 8 |  |  | 30.4 |  |
| CCNCc1cncc(-c2cc3c(-c4cc5c(-c6cccnc6)cncc5[nH]4)n[nH]c3cn2)c1 | 3730 | 2 | 3000 | 10 |  | 67.6 |
| c1cncc(-c2cc3c(-c4cc5cnccc5[nH]4)n[nH]c3cn2)c1 | 133 | 2 |  | 30 |  | 62 |
| c1ccc2[nH]c(-c3n[nH]c4ncc(-c5cncc(CN6CCCC6)c5)cc34)cc2c1 | 1410 | 56 |  | 10 |  | 97.6 |
| CC(C)Oc1ccc(NC(=O)c2n[nH]c3ccc(-c4cncc(CN5CCCCC5)c4)cc23)cn1 | 41 | 17 |  | 10 |  | 51.9 |
| O=C(Nc1cncc(-c2cc3c(-c4cc5cnccc5[nH]4)n[nH]c3cn2)c1)C1CCCCC1 | 1620 | 3 |  | 30 |  | 59.4 |
| CCCCC(=O)Nc1cncc(-c2cc3c(-c4cc5c(-c6cccnc6)ccnc5[nH]4)n[nH]c3cn2)c1 | > 10000 | 29 |  | 10 |  | 52.8 |
| CC(C)Oc1ccc(NC(=O)c2n[nH]c3ccc(-c4cncc(CN5CC6CC(C5)O6)c4)cc23)cn1 | 61 |  | 0.2 | 30 |  | 75.7 |
| CS(=O)(=O)NCc1cc(F)cc(-c2nccc3[nH]c(-c4n[nH]c5cnc(-c6cncc(CNCC7CCCC7)c6)cc45)cc23)c1 | > 10000 | 27 |  | 30 |  | 52.3 |
| CCNCc1cncc(-c2cnc3[nH]nc(-c4cc5c(-c6cccnc6)ccnc5[nH]4)c3c2)c1 | > 10000 | 26 |  | 10 |  | 91.8 |
| c1ccc(CNCc2cncc(-c3ccc4[nH]nc(-c5cc6c(-c7cccs7)cncc6[nH]5)c4c3)c2)cc1 | 578 | 63 |  | 10 |  | 57.4 |
| Cc1ncc(-c2cnc3[nH]nc(-c4cc5c(-c6ccncc6)cncc5[nH]4)c3c2)n1C | > 10000 | 28 |  | 10 |  | 194 |
| CCCC(=O)Nc1cncc(-c2cc3c(-c4cc5c(-c6cc(F)cc(NCCN(C)C)c6)ccnc5[nH]4)n[nH]c3cn2)c1 | > 10000 | 39 |  | 10 |  | 162 |
| c1cc(-c2cncc3[nH]c(-c4n[nH]c5ccc(-c6cncc(CN7CCCCC7)c6)nc45)cc23)ccn1 | > 10000 | 20 |  | 10 |  | 97.1 |
| CN1CCN(c2nccc3[nH]c(-c4n[nH]c5cnc(-c6cncc(NC(=O)c7ccccc7)c6)cc45)cc23)CC1 | 2800 | 4 |  | 10 |  | 67 |
| c1csc(-c2nccc3[nH]c(-c4n[nH]c5cnc(-c6cncc(CN7CCCCC7)c6)cc45)cc23)c1 | 3680 | 31 |  | 10 |  | 59 |
| CC(C)CC(=O)Nc1cncc(-c2cc3c(-c4nc5c(-c6cc(F)cc(OCCN7CCCC7)c6)cncc5[nH]4)n[nH]c3cn2)c1 | > 10000 | 3 | 3000 |  |  | 20.3 |
| CS(=O)(=O)NCc1cc(F)cc(-c2cncc3[nH]c(-c4n[nH]c5ccc(-c6cncc(NC(=O)C7CC7)c6)nc45)cc23)c1 | 1300 | 53 |  | 10 |  | 82.9 |
| CN(C)Cc1cncc(-c2cc3c(-c4cc5c(-c6cccc(F)c6)nccc5[nH]4)n[nH]c3cn2)c1 | 1850 | 54 |  | 30 |  | 60 |
| O=C(CC1CCNCC1)Nc1cncc(-c2ccc3[nH]nc(-c4cc5c(-c6ccoc6)ccnc5[nH]4)c3n2)c1 | > 10000 | 64 |  | 10 |  | 102 |
| Cc1ccncc1-c1cnc2[nH]nc(-c3nc4c(-c5cc(F)cc(CNS(C)(=O)=O)c5)nccc4[nH]3)c2c1 | 124 | 84 |  | 10 |  | 92.8 |
| CCCCC(=O)Nc1cncc(-c2cc3c(-c4cc5c(-c6cc(F)cc(CNS(C)(=O)=O)c6)nccc5[nH]4)n[nH]c3cn2)c1 | > 10000 | 62 |  | 10 |  | 111 |
| c1cnc2[nH]c(-c3n[nH]c4ccc(-c5cncc(CN6CCCCC6)c5)cc34)cc2c1 | 1670 | 4 |  | 10 |  | 50.8 |
| CN(C)CCNc1cc(F)cc(-c2cccc3[nH]c(-c4n[nH]c5cnc(-c6cncc(O)c6)cc45)cc23)c1 | 405 | 60 |  | 10 |  | 66.4 |
| CC(C)C(=O)Nc1cncc(-c2cc3c(-c4cc5c(-c6cc(F)cc(CNS(C)(=O)=O)c6)nccc5[nH]4)n[nH]c3cn2)c1 | > 10000 | 27 |  | 30 |  | 79.5 |
| O=C(Nc1cncc(-c2ccc3[nH]nc(-c4cc5c(-c6cccnc6)cncc5[nH]4)c3c2)c1)c1ccccc1 | > 10000 | 35 |  | 10 |  | 68.5 |

Now from value to compound, other results behind:

| EC50 [2] [nM] | EC50 [3] [nM] | EC50 [5] [nM] | EC50 [6] [nM] | Structure (SMILES) | Emax at 0.03 µM [1] [%] | Emax at 0.01 µM [4] [%] |
| --- | --- | --- | --- | --- | --- | --- |
| > 10000 | 56 |  |  | CCNCc1cncc(-c2ccc3[nH]nc(-c4cc5c(-c6cccnc6)ccnc5[nH]4)c3c2)c1 | 28.7 |  |
| > 10000 | 39 |  | 30 | Cc1cn(-c2nccc3[nH]c(-c4n[nH]c5ccc(-c6cncc(NC(=O)C(C)(C)C)c6)nc45)nc23)cn1 |  | 69.7 |
| 1070 | 40 |  | 30 | Nc1cncc(-c2ccc3[nH]nc(-c4nc5c(-c6ccccc6F)cccc5[nH]4)c3n2)c1 |  | 81.8 |
| 823 | 92 |  | 30 | O=C(Nc1cncc(-c2ccc3[nH]nc(-c4nc5c(-c6ccc(Cl)s6)nccc5[nH]4)c3n2)c1)C1CCC1 |  | 60.2 |
| > 10000 | 55 |  | 10 | CCCCC(=O)Nc1cncc(-c2ccc3[nH]nc(-c4nc5c(-c6cc(F)cc(NCCN(C)C)c6)cncc5[nH]4)c3n2)c1 |  | 64.7 |
| > 10000 | 21 |  | 10 | CC(C)(C)CC(=O)Nc1cncc(-c2ccc3[nH]nc(-c4nc5ccncc5[nH]4)c3n2)c1 |  | 54.1 |
| 3760 | 29 |  | 10 | CCNCc1cncc(-c2ccc3[nH]nc(-c4cc5cccnc5[nH]4)c3n2)c1 |  | 79.9 |
| > 10000 | 92 |  | 10 | CCCCC(=O)Nc1cncc(-c2ccc3[nH]nc(-c4nc5c(-c6ccoc6)cncc5[nH]4)c3n2)c1 |  | 73.6 |
| 45.5 | 2 | 3000 | 10 | Cc1ccc(-c2nccc3[nH]c(-c4n[nH]c5ccc(-c6cncc(N)c6)nc45)nc23)s1 |  | 72.6 |
| 981 | 14 |  | 10 | CC(C)Nc1cncc(-c2ccc3[nH]nc(-c4nc5c(-c6cccnc6)nccc5[nH]4)c3n2)c1 |  | 54.4 |
| > 10000 | 18 |  | 10 | CC(C)Nc1cncc(-c2cnc3[nH]nc(-c4cc5c(-c6cccnc6)ccnc5[nH]4)c3c2)c1 |  | 135 |
| 1120 | 53 |  | 30 | c1cncc(-c2ccc3[nH]nc(-c4nc5c(-c6cccnc6)cccc5[nH]4)c3n2)c1 |  | 57.8 |
| 435 | 44 |  | 10 | CC(C)Nc1cncc(-c2cnc3[nH]nc(-c4cc5c(-c6ccccc6F)nccc5[nH]4)c3c2)c1 |  | 75.8 |
| 1480 | 72 |  | 10 | CC(C)CC(=O)Nc1cncc(-c2ccc3[nH]nc(-c4nc5c(-c6ccc(Cl)s6)cncc5[nH]4)c3n2)c1 |  | 60.6 |
| > 10000 | 86 |  | 10 | O=C(Nc1cncc(-c2ccc3[nH]nc(-c4nc5c(-c6ccccc6F)ccnc5[nH]4)c3n2)c1)C(F)(F)F |  | 74 |
| 1.9 | 58 |  | 2700 | Cc1ccc(-c2nccc3[nH]c(-c4n[nH]c5ccc(-c6cncc(N)c6)cc45)nc23)s1 |  | 163 |
| 100 | 83 |  | 10 | CC(C)Nc1cncc(-c2ccc3[nH]nc(-c4cc5c(-c6cccnc6)cccc5[nH]4)c3c2)c1 |  | 226 |
| > 10000 | 24 |  | 10 | c1cncc(-c2ccc3[nH]nc(-c4cc5cccnc5[nH]4)c3n2)c1 |  | 65.9 |
| 420 | 75 |  | 10 | CN(C)CCNc1cc(F)cc(-c2cccc3[nH]c(-c4n[nH]c5ccc(-c6cncnc6)nc45)cc23)c1 |  | 181 |
| 66.3 | 20 |  | 10 | Cc1ccc(-c2cccc3[nH]c(-c4n[nH]c5ccc(-c6cncc(N)c6)nc45)nc23)s1 |  | 87.9 |
